From patent US9687550B2, “Compositions for nucleic acid delivery” (Arbutus Biopharma Corporation, priority 2009, dated 2017)

Test: pKa of lipid
Type: physicochemical

CCCCCCCCCCCCCCCCCCC(CCCCCCCCCCCCCCCCCC)OC(=O)CCCN(C)C [compound 111]
pKa: > 7.4
